# pKi: −log10 of the molar value.
# How the values were obtained:
# [1] = target: Serine/threonine-protein kinase Nek7 (Homo sapiens) (UniProt Q8TDX7); details: Compound concentration 1000.0 nM
# [2] = target: Mitogen-activated protein kinase kinase kinase 6 (Homo sapiens) (UniProt O95382); details: Compound concentration 1000.0 nM
# [3] = target: Tyrosine-protein kinase receptor TYRO3 (Homo sapiens) (UniProt Q06418); details: Compound concentration 1000.0 nM
# [4] = target: Serine/threonine-protein kinase WNK2 (Homo sapiens) (UniProt Q9Y3S1); details: Compound concentration 1000.0 nM
# [5] = target: Hormonally up-regulated neu tumor-associated kinase (Homo sapiens) (UniProt P57058); details: Compound concentration 1000.0 nM
# [6] = target: Mitogen-activated protein kinase kinase kinase 10 (Homo sapiens) (UniProt Q02779); details: Compound concentration 1000.0 nM
# [7] = target: Activin receptor type-1B (Homo sapiens) (UniProt P36896); details: Compound concentration 1000.0 nM
# [8] = target: Tyrosine-protein kinase Fer (Homo sapiens) (UniProt P16591); details: Compound concentration 1000.0 nM
# Chain of Tyrosine-protein kinase Fer (Homo sapiens) (P16591 whole entry, looked up): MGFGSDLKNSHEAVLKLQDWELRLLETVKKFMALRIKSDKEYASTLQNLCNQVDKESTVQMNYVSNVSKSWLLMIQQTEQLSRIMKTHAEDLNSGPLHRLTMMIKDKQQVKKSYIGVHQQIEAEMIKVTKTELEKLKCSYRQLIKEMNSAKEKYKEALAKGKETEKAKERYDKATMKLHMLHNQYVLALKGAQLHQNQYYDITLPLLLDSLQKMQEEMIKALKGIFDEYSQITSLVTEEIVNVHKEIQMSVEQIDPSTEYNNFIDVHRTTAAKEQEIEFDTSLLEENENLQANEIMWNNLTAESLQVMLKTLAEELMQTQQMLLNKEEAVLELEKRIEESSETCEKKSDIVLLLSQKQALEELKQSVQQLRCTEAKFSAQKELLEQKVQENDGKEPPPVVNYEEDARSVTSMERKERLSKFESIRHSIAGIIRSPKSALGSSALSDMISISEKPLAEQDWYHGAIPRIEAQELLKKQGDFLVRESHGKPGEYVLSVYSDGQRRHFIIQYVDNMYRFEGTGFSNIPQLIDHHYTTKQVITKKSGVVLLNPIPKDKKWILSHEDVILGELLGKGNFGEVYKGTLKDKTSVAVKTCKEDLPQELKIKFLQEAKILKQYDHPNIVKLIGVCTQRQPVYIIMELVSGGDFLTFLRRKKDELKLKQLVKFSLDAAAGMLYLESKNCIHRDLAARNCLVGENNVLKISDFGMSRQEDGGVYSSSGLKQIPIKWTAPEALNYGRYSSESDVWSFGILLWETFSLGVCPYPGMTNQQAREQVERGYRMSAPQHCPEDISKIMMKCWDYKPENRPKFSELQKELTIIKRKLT
# [9] = target: Tyrosine-protein kinase ZAP-70 (Homo sapiens) (UniProt P43403); details: Compound concentration 1000.0 nM
# [10] = target: Serine/threonine-protein kinase PLK3 (Homo sapiens) (UniProt Q9H4B4); details: Compound concentration 1000.0 nM
# [11] = target: Myotonin-protein kinase (Homo sapiens) (UniProt Q09013); details: Compound concentration 1000.0 nM
# [12] = target: Ephrin type-A receptor 3 (Homo sapiens) (UniProt P29320); details: Compound concentration 1000.0 nM
# [13] = target: Serine/threonine-protein kinase 35 (Homo sapiens) (UniProt Q8TDR2); details: Compound concentration 1000.0 nM
# [14] = target: Tyrosine-protein kinase BTK (Homo sapiens) (UniProt Q06187); details: Compound concentration 1000.0 nM
# [15] = target: Calcium/calmodulin-dependent protein kinase kinase 1 (Homo sapiens) (UniProt Q8N5S9); details: Compound concentration 1000.0 nM
# Chain of Calcium/calmodulin-dependent protein kinase kinase 1 (Homo sapiens) (Q8N5S9 whole entry, looked up): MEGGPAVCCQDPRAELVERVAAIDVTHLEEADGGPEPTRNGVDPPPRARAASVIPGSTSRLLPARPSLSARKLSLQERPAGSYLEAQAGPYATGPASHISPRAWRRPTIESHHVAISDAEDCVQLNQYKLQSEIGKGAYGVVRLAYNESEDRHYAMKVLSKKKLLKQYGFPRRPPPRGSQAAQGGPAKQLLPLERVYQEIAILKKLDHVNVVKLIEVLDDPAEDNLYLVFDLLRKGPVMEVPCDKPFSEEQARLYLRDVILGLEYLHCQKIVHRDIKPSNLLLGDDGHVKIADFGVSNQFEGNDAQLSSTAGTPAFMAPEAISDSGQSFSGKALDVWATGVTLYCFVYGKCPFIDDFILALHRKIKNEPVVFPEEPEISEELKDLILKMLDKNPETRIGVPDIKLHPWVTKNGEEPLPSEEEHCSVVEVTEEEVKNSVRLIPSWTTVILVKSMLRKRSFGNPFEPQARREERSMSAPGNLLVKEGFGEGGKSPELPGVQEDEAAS
# [16] = target: Misshapen-like kinase 1 (Homo sapiens) (UniProt Q8N4C8); details: Compound concentration 1000.0 nM
# Chain of Misshapen-like kinase 1 (Homo sapiens) (Q8N4C8 whole entry, looked up): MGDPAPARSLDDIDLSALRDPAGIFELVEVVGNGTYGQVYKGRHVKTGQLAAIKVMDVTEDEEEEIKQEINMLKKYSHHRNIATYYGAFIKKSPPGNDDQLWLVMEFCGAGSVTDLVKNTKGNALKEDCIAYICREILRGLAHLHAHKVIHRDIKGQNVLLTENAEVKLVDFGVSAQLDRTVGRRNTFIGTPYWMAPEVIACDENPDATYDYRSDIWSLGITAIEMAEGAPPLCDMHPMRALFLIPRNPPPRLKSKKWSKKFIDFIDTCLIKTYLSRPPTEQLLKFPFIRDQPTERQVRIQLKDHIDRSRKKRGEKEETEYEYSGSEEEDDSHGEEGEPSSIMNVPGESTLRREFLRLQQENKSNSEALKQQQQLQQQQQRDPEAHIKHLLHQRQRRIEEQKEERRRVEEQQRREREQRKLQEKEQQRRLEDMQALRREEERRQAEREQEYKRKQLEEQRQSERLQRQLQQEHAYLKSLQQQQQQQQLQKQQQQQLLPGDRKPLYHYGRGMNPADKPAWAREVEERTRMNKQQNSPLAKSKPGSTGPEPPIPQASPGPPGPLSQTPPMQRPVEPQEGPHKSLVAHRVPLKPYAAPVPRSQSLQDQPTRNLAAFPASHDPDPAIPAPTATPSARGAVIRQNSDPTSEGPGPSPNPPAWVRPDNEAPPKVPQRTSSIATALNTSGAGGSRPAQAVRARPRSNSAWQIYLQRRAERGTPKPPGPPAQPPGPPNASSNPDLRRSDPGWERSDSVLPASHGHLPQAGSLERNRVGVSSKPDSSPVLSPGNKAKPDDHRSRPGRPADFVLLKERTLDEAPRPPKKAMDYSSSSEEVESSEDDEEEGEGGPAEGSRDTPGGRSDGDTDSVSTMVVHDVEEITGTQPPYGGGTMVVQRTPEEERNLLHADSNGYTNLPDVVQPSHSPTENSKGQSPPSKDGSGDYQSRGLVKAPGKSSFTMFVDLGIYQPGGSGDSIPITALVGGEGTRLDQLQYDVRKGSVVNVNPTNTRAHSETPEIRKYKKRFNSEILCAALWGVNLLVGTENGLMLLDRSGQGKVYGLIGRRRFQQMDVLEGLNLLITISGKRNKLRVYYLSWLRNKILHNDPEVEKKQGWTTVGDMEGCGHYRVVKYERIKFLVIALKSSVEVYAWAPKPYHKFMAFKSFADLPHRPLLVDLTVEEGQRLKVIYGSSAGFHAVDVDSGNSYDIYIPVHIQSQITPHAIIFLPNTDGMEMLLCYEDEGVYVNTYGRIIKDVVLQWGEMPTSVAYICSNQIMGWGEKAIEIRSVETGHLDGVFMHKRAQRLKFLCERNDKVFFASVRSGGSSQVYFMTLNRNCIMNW
# [17] = target: Activated CDC42 kinase 1 (Homo sapiens) (UniProt Q07912); details: Compound concentration 1000.0 nM
# [18] = target: SRSF protein kinase 1 (Homo sapiens) (UniProt Q96SB4); details: Compound concentration 1000.0 nM
# [19] = target: Serine/threonine-protein kinase RIO1 (Homo sapiens) (UniProt Q9BRS2); details: Compound concentration 1000.0 nM
# [20] = test system: Epidermal growth factor receptor (Homo sapiens), P00533 [UNDEFINED MUTATION]; details: Compound concentration 1000.0 nM
# [21] = test system: Epidermal growth factor receptor (Homo sapiens), P00533 [G719C]; details: Compound concentration 1000.0 nM
# [22] = target: Serine/threonine-protein kinase Nek6 (Homo sapiens) (UniProt Q9HC98); details: Compound concentration 1000.0 nM
# [23] = target: SRSF protein kinase 2 (Homo sapiens) (UniProt P78362); details: Compound concentration 1000.0 nM
# [24] = test system: Fibroblast growth factor receptor 3 (Homo sapiens), P22607 [G697C]; details: Compound concentration 1000.0 nM
# [25] = test system: Phosphatidylinositol 4,5-bisphosphate 3-kinase catalytic subunit alpha isoform (Homo sapiens), P42336 [M1043I]; details: Compound concentration 1000.0 nM
# [26] = target: Alpha-1D adrenergic receptor (Homo sapiens) (UniProt P25100); details: Compound concentration 10.0 uM
# [27] = target: Interferon-induced, double-stranded RNA-activated protein kinase (Homo sapiens) (UniProt P19525); details: Compound concentration 1000.0 nM
# [28] = target: Casein kinase I isoform gamma-3 (Homo sapiens) (UniProt Q9Y6M4); details: Compound concentration 1000.0 nM
# [29] = target: Tyrosine-protein kinase JAK3 (Homo sapiens) (UniProt P52333); details: Compound concentration 1000.0 nM
# [30] = target: Rho-associated protein kinase 1 (Homo sapiens) (UniProt Q13464); details: Compound concentration 1000.0 nM
# [31] = target: Serine/threonine-protein kinase pim-1 (Homo sapiens) (UniProt P11309); details: Compound concentration 1000.0 nM
# [32] = target: Homeodomain-interacting protein kinase 4 (Homo sapiens) (UniProt Q8NE63); details: Compound concentration 1000.0 nM
# [33] = test system: ALK tyrosine kinase receptor (Homo sapiens), Q9UM73 [L1196M]; details: Compound concentration 1000.0 nM
# Rattus norvegicus = species on record: Rattus norvegicus; details: Compound concentration 10.0 uM
# [34] = target: Cytoplasmic tyrosine-protein kinase BMX (Homo sapiens) (UniProt P51813); details: Compound concentration 1000.0 nM
# [35] = target: Cyclin-dependent kinase 7 (Homo sapiens) (UniProt P50613); details: Compound concentration 1000.0 nM
# Chain of Cyclin-dependent kinase 7 (Homo sapiens) (P50613 whole entry): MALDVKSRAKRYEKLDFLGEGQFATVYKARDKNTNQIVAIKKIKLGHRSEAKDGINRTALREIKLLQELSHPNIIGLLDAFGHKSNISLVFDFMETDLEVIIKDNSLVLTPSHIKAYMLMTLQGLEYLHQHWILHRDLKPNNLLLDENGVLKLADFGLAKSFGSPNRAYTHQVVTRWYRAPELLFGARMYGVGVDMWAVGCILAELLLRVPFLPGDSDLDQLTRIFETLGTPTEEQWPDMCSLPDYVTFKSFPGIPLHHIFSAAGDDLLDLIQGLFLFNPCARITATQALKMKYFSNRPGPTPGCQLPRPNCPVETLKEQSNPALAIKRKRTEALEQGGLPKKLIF
# [36] = target: Sigma intracellular receptor 2 (Homo sapiens, UniProt Q5BJF2); assay: GPCRScan assay: inhibition of Sigma 2; parameters: radioligand conc. used [nm] 5.0, parental cells HEKT
# [37] = target: Homeodomain-interacting protein kinase 3 (Homo sapiens) (UniProt Q9H422); details: Compound concentration 1000.0 nM
# [38] = target: D(1A) dopamine receptor (Homo sapiens) (UniProt P21728); details: Compound concentration 10.0 uM
# [39] = target: Interleukin-1 receptor-associated kinase 4 (Homo sapiens) (UniProt Q9NWZ3); details: Compound concentration 1000.0 nM
# [40] = target: Serine/threonine-protein kinase/endoribonuclease IRE1 (Homo sapiens) (UniProt O75460); details: Compound concentration 1000.0 nM
# [41] = target: MAP kinase-activated protein kinase 2 (Homo sapiens) (UniProt P49137); details: Compound concentration 1000.0 nM
# [42] = test system: Phosphatidylinositol 4,5-bisphosphate 3-kinase catalytic subunit alpha isoform (Homo sapiens), P42336 [C420R]; details: Compound concentration 1000.0 nM
# [43] = target: Tyrosine-protein kinase CSK (Homo sapiens) (UniProt P41240); details: Compound concentration 1000.0 nM
# [44] = target: Protein kinase C delta type (Homo sapiens) (UniProt Q05655); details: Compound concentration 1000.0 nM
# Chain of Protein kinase C delta type (Homo sapiens) (Q05655 whole entry, looked up): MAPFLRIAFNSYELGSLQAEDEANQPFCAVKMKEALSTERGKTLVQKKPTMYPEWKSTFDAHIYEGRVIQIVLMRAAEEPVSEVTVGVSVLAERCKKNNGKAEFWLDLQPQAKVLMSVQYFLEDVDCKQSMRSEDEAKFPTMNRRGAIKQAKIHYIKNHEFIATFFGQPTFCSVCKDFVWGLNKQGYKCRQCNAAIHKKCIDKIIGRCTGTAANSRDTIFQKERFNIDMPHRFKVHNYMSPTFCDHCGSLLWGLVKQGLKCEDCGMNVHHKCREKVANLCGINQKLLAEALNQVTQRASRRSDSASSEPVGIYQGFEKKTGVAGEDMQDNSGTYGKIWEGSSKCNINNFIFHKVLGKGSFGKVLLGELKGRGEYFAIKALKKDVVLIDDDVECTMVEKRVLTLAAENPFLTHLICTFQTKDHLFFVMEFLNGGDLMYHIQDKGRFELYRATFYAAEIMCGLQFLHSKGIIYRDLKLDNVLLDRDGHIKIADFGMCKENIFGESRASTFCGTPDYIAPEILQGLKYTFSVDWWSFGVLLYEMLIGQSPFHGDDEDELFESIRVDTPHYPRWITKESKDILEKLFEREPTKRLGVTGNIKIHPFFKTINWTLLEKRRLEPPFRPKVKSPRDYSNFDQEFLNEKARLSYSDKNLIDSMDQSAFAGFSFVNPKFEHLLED
# [45] = target: Serine/threonine-protein kinase PAK 3 (Homo sapiens) (UniProt O75914); details: Compound concentration 1000.0 nM
# Chain of Mitogen-activated protein kinase kinase kinase 6 (Homo sapiens) (O95382 whole entry): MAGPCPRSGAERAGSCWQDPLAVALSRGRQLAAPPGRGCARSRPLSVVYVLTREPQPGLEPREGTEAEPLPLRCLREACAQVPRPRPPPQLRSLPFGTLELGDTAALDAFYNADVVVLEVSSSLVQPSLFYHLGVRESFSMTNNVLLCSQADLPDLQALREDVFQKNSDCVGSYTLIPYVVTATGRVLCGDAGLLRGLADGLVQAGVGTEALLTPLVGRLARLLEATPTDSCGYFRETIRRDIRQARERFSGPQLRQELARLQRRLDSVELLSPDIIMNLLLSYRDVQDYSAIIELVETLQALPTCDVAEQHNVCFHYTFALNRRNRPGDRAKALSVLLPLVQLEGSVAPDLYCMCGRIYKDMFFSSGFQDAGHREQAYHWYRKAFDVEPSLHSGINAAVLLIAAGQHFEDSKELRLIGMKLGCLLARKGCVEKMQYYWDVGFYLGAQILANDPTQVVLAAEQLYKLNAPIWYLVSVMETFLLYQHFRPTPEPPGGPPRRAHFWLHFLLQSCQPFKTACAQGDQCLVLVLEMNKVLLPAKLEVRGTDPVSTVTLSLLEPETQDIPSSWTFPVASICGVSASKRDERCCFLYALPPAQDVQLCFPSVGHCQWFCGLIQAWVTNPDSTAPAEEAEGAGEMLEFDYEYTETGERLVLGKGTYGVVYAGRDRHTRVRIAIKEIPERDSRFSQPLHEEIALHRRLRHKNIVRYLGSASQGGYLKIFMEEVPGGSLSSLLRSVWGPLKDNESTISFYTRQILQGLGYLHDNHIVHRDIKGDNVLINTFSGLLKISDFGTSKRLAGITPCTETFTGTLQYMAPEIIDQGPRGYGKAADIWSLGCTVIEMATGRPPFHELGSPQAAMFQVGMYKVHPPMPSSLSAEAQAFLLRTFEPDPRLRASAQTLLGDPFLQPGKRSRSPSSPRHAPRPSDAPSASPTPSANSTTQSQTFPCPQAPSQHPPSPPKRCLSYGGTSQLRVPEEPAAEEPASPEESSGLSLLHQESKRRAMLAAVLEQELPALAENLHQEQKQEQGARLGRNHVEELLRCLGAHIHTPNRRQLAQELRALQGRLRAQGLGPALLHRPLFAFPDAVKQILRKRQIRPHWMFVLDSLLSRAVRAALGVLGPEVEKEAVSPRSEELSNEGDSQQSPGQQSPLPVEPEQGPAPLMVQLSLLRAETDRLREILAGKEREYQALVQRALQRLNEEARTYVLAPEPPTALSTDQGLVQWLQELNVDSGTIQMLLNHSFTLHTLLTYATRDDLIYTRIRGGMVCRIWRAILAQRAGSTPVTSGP
smiles,measurement,setting,value
O=C(Nc1ccc(Oc2ccc(F)cc2)cc1)N1CCc2ncccc2[C@H]1c1ccc(F)cc1 [BAY-897],residual activity,[1],82%
same,residual activity,[2],100%
same,residual activity,[3],99%
same,residual activity,[4],88%
same,residual activity,[5],99%
same,residual activity,[6],100%
same,residual activity,[7],94%
same,residual activity,[8],91%
same,residual activity,[9],91%
same,residual activity,[10],87%
same,residual activity,[11],91%
same,residual activity,[12],91%
same,residual activity,[13],80%
same,residual activity,[14],93%
same,residual activity,[15],99%
same,residual activity,[16],99%
same,residual activity,[17],99%
same,residual activity,[18],94%
same,residual activity,[19],100%
same,residual activity,[20],74%
same,residual activity,[21],73%
same,residual activity,[22],100%
same,residual activity,[23],100%
same,residual activity,[24],100%
same,residual activity,[25],89%
same,inhibition,[26],34%
same,residual activity,[27],100%
same,residual activity,[28],80%
same,residual activity,[29],100%
same,residual activity,[30],100%
same,residual activity,[31],99%
same,residual activity,[32],96%
same,residual activity,[33],100%
same,inhibition,Rattus norvegicus,33.4%
same,residual activity,[34],100%
same,residual activity,[35],77%
same,pKi,[36],6.17
same,residual activity,[37],92%
same,inhibition,[38],39.1%
same,residual activity,[39],96%
same,residual activity,[40],85%
same,residual activity,[41],98%
same,residual activity,[42],100%
same,residual activity,[43],100%
same,residual activity,[44],100%
same,residual activity,[45],100%
O=C(Nc1cnc(Oc2ccc(F)cc2)nc1)N1CCc2ncccc2[C@@H]1c1ccc(F)cc1 [BAY-899],residual activity,[1],84%
same,residual activity,[2],94%
same,residual activity,[3],100%
same,residual activity,[4],79%
same,residual activity,[5],100%
same,residual activity,[6],77%
same,residual activity,[7],100%
same,residual activity,[8],93%
same,residual activity,[9],93%
same,residual activity,[10],87%
same,residual activity,[11],98%
same,residual activity,[12],82%
same,residual activity,[13],71%
same,residual activity,[14],92%
same,residual activity,[15],92%
same,residual activity,[16],100%
same,residual activity,[17],93%
same,residual activity,[18],100%
same,residual activity,[19],89%
same,residual activity,[20],100%
same,residual activity,[21],76%
same,residual activity,[22],100%
same,residual activity,[23],100%
same,residual activity,[24],89%
same,residual activity,[25],100%
same,inhibition,[26],8.01%
same,residual activity,[27],73%
same,residual activity,[28],87%
same,residual activity,[29],91%
same,residual activity,[30],100%
same,residual activity,[31],91%
same,residual activity,[32],100%
same,residual activity,[33],100%
same,inhibition,Rattus norvegicus,44.6%
same,residual activity,[34],94%
same,residual activity,[35],100%
same,pKi,[36],5.69
same,residual activity,[37],90%
same,inhibition,[38],23.7%
same,residual activity,[39],95%
same,residual activity,[40],85%
same,residual activity,[41],80%
same,residual activity,[42],100%
same,residual activity,[43],100%
same,residual activity,[44],87%
same,residual activity,[45],100%

# — ChEMBL document CHEMBL4507317, “Data for DCP probe BAY-899” (2021)
